Results from article PMC7529555 (Thoracic Cancer, 2020).

How the values were obtained:
[1] = tested on: osimertinib metabolism in rat liver microsomes; assay: Inhibition by avitinib of osimertinib metabolism in rat liver microsomes; format: in vitro ADME; settings: pH 7.4, probe osimertinib 0.01 μM
wild-type EGFR = settings: cited from earlier work
[2] = Pharmacokinetics of osimertinib in rats after pretreatment with avitinib; format: in vivo, Sprague-Dawley rats
[3] = Metabolic stability of osimertinib in RLMs; format: in vitro ADME, rat; settings: rat, rat liver microsomes, pH 7.4
[4] = tested on: rat liver microsomes (RLM); assay: Metabolic stability of osimertinib in RLMs; format: in vitro ADME; settings: osimertinib incubation with RLMs
[5] = avitinib multiple doses group vs control
[6] = avitinib single dose group vs control

IC50 [1] [µM] | decrease of CLz/F vs control [2, 5] [%] | increase of AUC(0-t) vs control [2, 5] [fold] | increase of AUC(0-∞) vs control [2, 5] [fold] | increase of Cmax vs control [2, 5] [fold] | increase of MRT(0-t) vs control [2, 5] [fold] | increase of Tmax vs control [2, 5] [fold] | decrease of CLz/F vs control [2, 6] [%] | increase of AUC(0-t) vs control [2, 6] [fold] | increase of AUC(0-∞) vs control [2, 6] [fold] | increase of Cmax vs control [2, 6] [fold] | increase of MRT(0-t) vs control [2, 6] [fold] | increase of Tmax vs control [2, 6] [fold] | half-life at 0.01 μM [3] [min] | Slope (Ln remaining percent vs incubation time) [4] | Structure (SMILES) | effect on wild-type EGFR (wild-type EGFR) | inhibitory effect on the wild-type EGFR protein (wild-type EGFR)
27.6 |  |  |  |  |  |  |  |  |  |  |  |  |  |  | C=CC(=O)Nc1cccc(Oc2nc(Nc3ccc(N4CCN(C)CC4)c(F)c3)nc3[nH]ccc23)c1 [avitinib] | no effects | 
 | 52 | 1.91 | 1.92 | 1.66 | 1.39 | 1.74 | 44 | 2.35 | 2.38 | 1.72 | 1.31 | 1.48 | 33.6 | 0.02062 | C=CC(=O)Nc1cc(Nc2nccc(-c3cn(C)c4ccccc34)n2)c(OC)cc1N(C)CCN(C)C [osimertinib] |  | weak inhibitory effect
